In patent US9359308B2, “Pyrazine kinase inhibitors” (Portola Pharmaceuticals, Inc., priority 2011, dated 2016):

Target: T1, full length active recombinant SYK enzyme (Homo sapiens, UniProt P43405)
T1 construct: full length active recombinant SYK enzyme (Millipore, Calif.); purchased Millipore
Experiment: Inhibition of Syk tyrosine phosphorylation activity (LANCE TR-FRET kinase assay)
Format: biochemical
Conditions: activity in the Syk assays, class symbols
Procedure, shortened: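 1 nM full-length active recombinant SYK phosphorylated 550 nM biotin-DEEDYESP-OH with 100 μM ATP in 50 mM Tris pH 7.5, 5 mM MgCl2, 1 mM DTT and 3% DMSO for 1 h at room temperature. After EDTA quench, Eu-anti-phosphotyrosine/SA-APC TR-FRET was read after 1 h. IC50s came from non-linear regression.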

Structure (SMILES)	IC50
CC[C@@H](Nc1cnc(C(N)=O)c(Nc2ccc(S(=O)(=O)N(C)C)cc2)n1)C(N)=O [Example 170, (R)-5-(1-amino-1-oxobutan-2-ylamino)-3-(4-(N,N-dimethylsulfamoyl)phenylamino)pyrazine-2-carboxamide]	10 to 100 nM
CC[C@@H](Nc1cnc(C(N)=O)c(Nc2cc(CO)ns2)n1)C(N)=O [Example 251, (R)-5-(1-amino-1-oxobutan-2-ylamino)-3-(3-(hydroxymethyl)isothiazol-5-ylamino)pyrazine-2-carboxamide]	10 to 100 nM
CC[C@@H](Nc1cnc(C(N)=O)c(Nc2cnn(C)c2)n1)C(N)=O [Example 211, (R)-5-(1-amino-1-oxobutan-2-ylamino)-3-(1-methyl-1H-pyrazol-4-ylamino)pyrazine-2-carboxamide]	100 to 1000 nM
NC(=O)c1ncc(N[C@@H]2CCCC[C@@H]2N)nc1Nc1cncnc1 [Example 303, 5-((1R,2S)-2-aminocyclohexylamino)-3-(pyrimidin-5-ylamino)pyrazine-2-carboxamide]	10 to 100 nM
NC(=O)c1ncc(N[C@@H]2CCCC[C@@H]2N)nc1NC1Cc2ccccc2C1 [Example 37, 5-((1R,2S)-2-aminocyclohexylamino)-3-(2,3-dihydro-1H-inden-2-ylamino)pyrazine-2-carboxamide]	10 to 100 nM
CC(=O)N1CC[C@@H](Nc2cnc(C(N)=O)c(Nc3cnc4ccccc4c3)n2)C1 [Example 110, (R)-5-((1-acetylpyrrolidin-3-yl)amino)-3-(quinolin-3-ylamino)pyrazine-2-carboxamide]	> 1000 nM
N#Cc1ccc(Nc2nc(N[C@@H]3CCCC[C@@H]3N)cnc2C(N)=O)cn1 [Example 338, 5-((1R,2S)-2-aminocyclohexylamino)-3-(6-cyanopyridin-3-ylamino)pyrazine-2-carboxamide]	10 to 100 nM
COc1cncc(Nc2nc(N[C@@H]3CCCC(F)(F)[C@@H]3N)cnc2C(N)=O)c1 [Example 333, 5-((1R,2R)-2-amino-3,3-difluorocyclohexylamino)-3-(5-methoxypyridin-3-ylamino)pyrazine-2-carboxamide]	100 to 1000 nM
COc1ccc(Nc2nc(N[C@@H]3CCCC[C@@H]3N)cnc2C(N)=O)cc1C(=O)N(C)C [Example 286, 5-((1R,2S)-2-aminocyclohexylamino)-3-(3-(dimethylcarbamoyl)-4-methoxyphenylamino)pyrazine-2-carboxamide]	100 to 1000 nM
CC(C)C[C@@H](Nc1cnc(C(N)=O)c(Nc2cccc(C(=O)N(C)C)c2)n1)C(N)=O [Example 292, (R)-5-(1-amino-4-methyl-1-oxopentan-2-ylamino)-3-(3-(dimethylcarbamoyl)phenylamino)pyrazine-2-carboxamide]	100 to 1000 nM
Cc1ccc(Nc2nc(N[C@@H](C(N)=O)C(C)C)cnc2C(N)=O)cc1C [Example 162, (R)-5-(1-amino-3-methyl-1-oxobutan-2-ylamino)-3-(3,4-dimethylphenylamino)pyrazine-2-carboxamide]	10 to 100 nM
NC(=O)c1ccc(Nc2nc(N[C@@H]3CCCC(F)(F)[C@@H]3N)cnc2C(N)=O)cc1 [Example 19, 5-((1R,2R)-2-amino-3,3-difluorocyclohexylamino)-3-(4-carbamoylphenylamino)pyrazine-2-carboxamide]	10 to 100 nM
NC(=O)c1ncc(N[C@@H]2CCNC2)nc1Nc1cnc2ccncc2c1 [Example 117, (R)-3-((1,6-naphthyridin-3-yl)amino)-5-(pyrrolidin-3-ylamino)pyrazine-2-carboxamide]	10 to 100 nM
NC(=O)c1ncc(N[C@@H]2CCCC(F)(F)[C@@H]2N)nc1Nc1ccc2nccnc2c1 [Example 365, 5-((1R,2R)-2-amino-3,3-difluorocyclohexylamino)-3-(quinoxalin-6-ylamino)pyrazine-2-carboxamide]	10 to 100 nM
CC(C)[C@@H](Nc1cnc(C(N)=O)c(Nc2ccc(-n3ccnc3)cc2)n1)C(N)=O [Example 149, (R)-3-(4-(1H-imidazol-1-yl)phenylamino)-5-(1-amino-3-methyl-1-oxobutan-2-ylamino)pyrazine-2-carboxamide]	10 to 100 nM
CN(C)C(=O)c1ccc(Nc2nc(N[C@@H]3CCCC[C@@H]3N)cnc2C(N)=O)cn1 [Example 278, 5-((1R,2S)-2-aminocyclohexylamino)-3-(6-(dimethylcarbamoyl)pyridin-3-ylamino)pyrazine-2-carboxamide]	100 to 1000 nM
NC(=O)c1ncc(N[C@@H]2CCNC2)nc1Nc1cncc(F)c1 [Example 115, (R)-3-((5-fluoropyridin-3-yl)amino)-5-(pyrrolidin-3-ylamino)pyrazine-2-carboxamide]	100 to 1000 nM
NC(=O)c1ncc(N[C@@H]2CCCC[C@@H]2N)nc1Nc1cc(C2CC2)no1 [Example 231, 5-((1R,2S)-2-aminocyclohexylamino)-3-(3-cyclopropylisoxazol-5-ylamino)pyrazine-2-carboxamide]	10 to 100 nM

Further lines, results first:

IC50	Structure (SMILES)
1 to 10 nM	Cc1cc(Nc2nc(N[C@H](CC3CC3)C(N)=O)cnc2C(N)=O)sn1 [Example 374, (R)-5-(1-amino-3-cyclopropyl-1-oxopropan-2-ylamino)-3-(3-methylisothiazol-5-ylamino)pyrazine-2-carboxamide]
1 to 10 nM	CC(C)C[C@@H](Nc1cnc(C(N)=O)c(Nc2ccc(C(=O)N3CC(C#N)C3)nc2)n1)C(N)=O [Example 321, (R)-5-(1-amino-4-methyl-1-oxopentan-2-ylamino)-3-(6-(3-cyanoazetidine-1-carbonyl)pyridin-3-ylamino)pyrazine-2-carboxamide]
1 to 10 nM	Cn1ccc2c(Nc3nc(N[C@H](CC4CC4)C(N)=O)cnc3C(N)=O)cccc21 [Example 397, (R)-5-(1-amino-3-cyclopropyl-1-oxopropan-2-ylamino)-3-(1-methyl-1H-indol-4-ylamino)pyrazine-2-carboxamide]
1 to 10 nM	NC(=O)c1ncc(N[C@@H]2CCCC[C@@H]2N)nc1Nc1cc(CO)ns1 [Example 250, 5-((1R,2S)-2-aminocyclohexylamino)-3-(3-(hydroxymethyl)isothiazol-5-ylamino)pyrazine-2-carboxamide]
1 to 10 nM	CCc1cc(Nc2nc(N[C@H](CC3CC3)C(N)=O)cnc2C(N)=O)sn1 [Example 225, (R)-5-(1-amino-3-cyclopropyl-1-oxopropan-2-ylamino)-3-(3-ethylisothiazol-5-ylamino)pyrazine-2-carboxamide]
1 to 10 nM	CCc1cc(Nc2nc(N[C@@H](C(N)=O)C(C)C)cnc2C(N)=O)sn1 [Example 224, (R)-5-(1-amino-3-methyl-1-oxobutan-2-ylamino)-3-(3-ethylisothiazol-5-ylamino)pyrazine-2-carboxamide]
1 to 10 nM	CC(C)C[C@@H](Nc1cnc(C(N)=O)c(Nc2ccc(-c3ccno3)cc2)n1)C(N)=O [Example 21, (R)-5-(1-amino-4-methyl-1-oxopentan-2-ylamino)-3-(4-(isoxazol-5-yl)phenylamino)pyrazine-2-carboxamide]
1 to 10 nM	Cc1cc(Nc2nc(N[C@@H](C(N)=O)C(C)C)cnc2C(N)=O)sn1 [Example 212, (R)-5-(1-amino-3-methyl-1-oxobutan-2-ylamino)-3-(3-methylisothiazol-5-ylamino)pyrazine-2-carboxamide]
1 to 10 nM	NC(=O)c1ncc(N[C@@H]2CCCC[C@@H]2N)nc1Nc1ccc(C(=O)N2CCC2)cc1 [Example 295, 5-((1R,2S)-2-aminocyclohexylamino)-3-(4-(azetidine-1-carbonyl)phenylamino)pyrazine-2-carboxamide]
1 to 10 nM	CC(C)C[C@@H](Nc1cnc(C(N)=O)c(Nc2cncc(Cl)c2)n1)C(N)=O [Example 216, (R)-5-(1-amino-4-methyl-1-oxopentan-2-ylamino)-3-(5-chloropyridin-3-ylamino)pyrazine-2-carboxamide]
1 to 10 nM	NC(=O)c1ncc(N[C@@H]2CCCC[C@@H]2N)nc1Nc1cnc2c(F)cccc2c1 [Example 202, 5-((1R,2S)-2-aminocyclohexylamino)-3-(8-fluoroquinolin-3-ylamino)pyrazine-2-carboxamide]
1 to 10 nM	CCc1c(C)nsc1Nc1nc(N[C@@H]2CCCC[C@@H]2N)cnc1C(N)=O [Example 130, 5-(((1R,2S)-2-aminocyclohexyl)amino)-3-((4-ethyl-3-methylisothiazol-5-yl)amino)pyrazine-2-carboxamide]
1 to 10 nM	CC[C@@H](Nc1cnc(C(N)=O)c(Nc2ccnc3ccccc23)n1)C(N)=O [Example 370, (R)-5-(1-amino-1-oxobutan-2-ylamino)-3-(quinolin-4-ylamino)pyrazine-2-carboxamide]
1 to 10 nM	CC(C)[C@@H](Nc1cnc(C(N)=O)c(Nc2cnc3ccc(F)cc3c2)n1)C(N)=O [Example 200, (R)-5-(1-amino-3-methyl-1-oxobutan-2-ylamino)-3-(6-fluoroquinolin-3-ylamino)pyrazine-2-carboxamide]
1 to 10 nM	COc1cncc(Nc2nc(N[C@H](CC(C)C)C(N)=O)cnc2C(N)=O)c1 [Example 323, (R)-5-(1-amino-4-methyl-1-oxopentan-2-ylamino)-3-(5-methoxypyridin-3-ylamino)pyrazine-2-carboxamide]
1 to 10 nM	CC[C@@H](Nc1cnc(C(N)=O)c(Nc2cc(C3CC3)ns2)n1)C(N)=O [Example 238, (R)-5-(1-amino-1-oxobutan-2-ylamino)-3-(3-cyclopropylisothiazol-5-ylamino)pyrazine-2-carboxamide]
1 to 10 nM	CC(C)C[C@@H](Nc1cnc(C(N)=O)c(Nc2ccc3ncccc3c2)n1)C(N)=O [Example 2, (R)-5-(1-amino-4-methyl-1-oxopentan-2-ylamino)-3-(quinolin-6-ylamino)pyrazine-2-carboxamide]
1 to 10 nM	COc1ccc(Nc2nc(N[C@@H]3CCCC(F)(F)[C@@H]3N)cnc2C(N)=O)cc1OC [Example 165, 5-((1R,2R)-2-amino-3,3-difluorocyclohexylamino)-3-(3,4-dimethoxyphenylamino)pyrazine-2-carboxamide]
